Source: PMC3916416, “Recombinant Human Parathyroid Hormone Related Protein 1-34 and 1-84 and Their Roles in Osteoporosis Treatment” (PLoS ONE, 2014)

Key:
[1] = system: placental calcium transport; settings: cited from earlier work
Description: It supports the concept that the mid-molecule region of PTHrP is functionally important in placental calcium transport. […] However, it is unclear whether there are some differences between PTHrP1-34 and 1-84 on renal calcium reabsorption and on bone formation. To answer this que ...

[2] = Serum PTHrP analyses (ELISA) after subcutaneous injection; format: in vivo, mouse; settings: OVX mice, 10 nmol/kg s.c.
Procedure: The OVX mice were injected with vehicle or 10 nmol/kg hPTHrP1-34 or 10 nmol/kg hPTHrP1-84 subcutaneously. Subsequently, blood samples were drawn at 15 and 30 minutes, 1, 2, 4 and 6 hours after the injections. Serum concentrations of hPTHrP1-34 or hPTHrP1-84 were measured by enzyme linked immunosorbent assay (ELISA) that used Phoenix Pharmaceuticals PTHrP(1-34)- EIA Kit (Phoenix Pharmaceuticals, USA). Procedures were performed according to the instructions of the kit.

[3] = system: Cbfa1, ALP, Col I, OCN, RANKL, OPG mRNA in long bone; test: Real-time RT-PCR of long bone extracts of OVX mice; format: in vivo, mouse; settings: 10 nmol/kg s.c. daily for 4 weeks, n = 6
Procedure: (§1) Twenty four female C57BL/6J mice, 8 weeks age, were assigned to four different groups, with six mice per group. All mice were anesthetized with chloral hydrate (0.4 ml/100 g body weight) and subjected to surgery on day 0. Sham surgery was performed on the Sham group (Sham) by identifying the bilateral ovaries and ovariectomy (OVX) was performed on the other groups by removing the bilateral ovaries. After surgery, all mice were maintained in a virus- and parasite-free barrier facility and exposed to a 12-h/12-h light/dark cycle under standard conditions in the Medical Experimental Animal Center of Nanjing Medical University for 9 weeks. HPTHrP1–34 was subcutaneously administered at a dose of 10 nmol/kg (40 µg/kg) body weight everyday for the last 4 weeks. HPTHrP1–84 was subcutaneously administered at a dose of 10 nmol/kg (100 µg/kg) body weight everyday for the last 4 weeks. Each of the mice received vehicle (vehicle-treated sham-operated mice and vehicle-treated OVX mice), hPTHrP1-34 (hPTHrP1-34-treated OVX mice) or hPTHrP1-84 (hPTHrP1-84-treated OVX mice). At the end of experiments, all mice were sacrificed by exsanguination under chloral hydrate anesthesia and blood were collected for serum calcium, phosphorus and ALP analyses, bones and kidneys were then removed for the analyses described below.
RNA was isolated from 14-day cultured cells using Trizol reagent (Invitrogen) according to the manufacturer's protocol. Femurs were isolated and weighted. Homogenize tissue samples in 1 ml of TRIzol reagent per 50–100 mg of tissue using mortar and pestle with liquid nitrogen. After homogenization, remove insoluble material from the homogenate by centrifuging at 12,000 RPM for 10 min at 4°C. Transfer the top layer solution into a new tube. RNA of this solution was precipitated with isopropanol, washed with 75% ethanol and dissolved with DEPC water. Reverse transcription reactions were performed using the SuperScript First-Strand Synthesis System (Invitrogen) as previously described. […]

[4] = system: primary bone marrow cells (BMC); test: Primary bone marrow cell culture, cytochemical colony (CFU-f) staining; format: cell-based, rat; settings: 10^-7 M on day 0, 18-day primary BMC cultures, compared with control cultures; triplicate determinations, three experiments
Procedure: Tibiae and femurs of 200-g male Wistar rats were removed under aseptic conditions, and bone marrow cells (BMC) were flushed out with Dulbecco's modified Eagle's minimal essential medium containing 10% fetal calf serum, 50 µg/ml ascorbic acid, 10 mM β-glycerophosphate, and 10^−8 M dexamethasone. Cells were dispersed by repeated pipetting, and a single-cell suspension was achieved by forcefully expelling the cells through a 22-gauge syringe needle. 10^6 total bone marrow cells were cultured in 36-cm^2 Petri dishes in 5 ml of the above-mentioned medium. All the dishes were assigned to three different groups. Each of the group treated with vehicle (Control), 10^−7 M hPTHrP1-34 or 10^−7 M hPTHrP1-84. The medium was changed every 4 days. The non-adherent cells containing hematopoietic elements were removed by pipetting gently when the medium was changed for the first time. Only monocytic cells remained. Cultures were maintained for 12–18 days. At the end of the culture period cells were stained cytochemically or RNA was extracted from these cells for RT-PCR as described below. The cells from 18-day primary BMC cultures were washed with PBS and fixed by the addition of cold ethanol. […] The numbers of colonies were counted macroscopically by hand. […]

[5] = system: OVX mice (osteoporosis model); test: Osteoblastic bone formation parameters of vertebrae in OVX mice; format: in vivo, mouse; settings: 10 nmol/kg s.c. daily for 4 weeks, compared to vehicle-treated sham-operated mice, n = 6
Procedure: as §1
Lumbar vertebrae or tibiae were removed and fixed in PLP fixative (2% paraformaldehyde containing 0.075 M lysine and 0.01 M sodium periodate solution) overnight at 4°C and processed histologically as described. Lumbar vertebrae were decalcified in ethylene-diamine tetraacetic acid (EDTA) glycerol solution for 5–7 days at 4°C. Decalcified samples were dehydrated and embedded in paraffin after which 5 µm sections were cut on a rotary microtome. […]
Double calcein labeling was performed by intraperitoneal injection of mice with 10 µg calcein/g body weight (C-0875, Sigma-Aldrich Corp., St. Louis, MO) at 10 and 3 day before death. […] Serial sections were cut, and the freshly cut surface of each section was viewed and imaged using fluorescence microscopy. The double calcein-labeled width of bone was measured using Northern Eclipse image analysis software version 6.0 (Empix Imaging, Inc., Mississauga, Canada), and the mineral apposition rate (MAR) was calculated as the interlabel width/labeling period.
(§2) After HE staining or histochemical staining of sections from six mice of each genotype, images of fields were photographed with a Sony digital camera. All images were digitally recorded using a rectangular template, and recordings were processed and analyzed using Northern Eclipse image analysis software as described, [26], [28].

[6] = system: Cbfa-1, ALP, Col I, OCN mRNA in primary BMC; test: Real-time RT-PCR of osteogenic genes in 14-day primary BMC cultures; format: cell-based, rat; settings: 10^-7 M, ratio to GAPDH, compared with control cultures, three trials
Procedure: Tibiae and femurs of 200-g male Wistar rats were removed under aseptic conditions, and bone marrow cells (BMC) were flushed out with Dulbecco's modified Eagle's minimal essential medium containing 10% fetal calf serum, 50 µg/ml ascorbic acid, 10 mM β-glycerophosphate, and 10^−8 M dexamethasone. Cells were dispersed by repeated pipetting, and a single-cell suspension was achieved by forcefully expelling the cells through a 22-gauge syringe needle. 10^6 total bone marrow cells were cultured in 36-cm^2 Petri dishes in 5 ml of the above-mentioned medium. All the dishes were assigned to three different groups. Each of the group treated with vehicle (Control), 10^−7 M hPTHrP1-34 or 10^−7 M hPTHrP1-84. The medium was changed every 4 days. The non-adherent cells containing hematopoietic elements were removed by pipetting gently when the medium was changed for the first time. Only monocytic cells remained. Cultures were maintained for 12–18 days. At the end of the culture period cells were stained cytochemically or RNA was extracted from these cells for RT-PCR as described below.
RNA was isolated from 14-day cultured cells using Trizol reagent (Invitrogen) according to the manufacturer's protocol. Femurs were isolated and weighted. Homogenize tissue samples in 1 ml of TRIzol reagent per 50–100 mg of tissue using mortar and pestle with liquid nitrogen. […]

[7] = Serum calcium, phosphorus and ALP in OVX mice; format: in vivo, mouse; settings: 10 nmol/kg s.c. daily for 4 weeks, versus vehicle-treated OVX mice, n = 6
Procedure: as §1, with “At the end of experiments, all mice were sacrificed by exsanguination under chloral hydrate anesthesia and blood were collected for serum calcium, phosphorus and ALP analyses, bones and kidneys were then removed for the analyses described below.” left out
Serum calcium, phosphorus and ALP were determined at 4 weeks after the administration of drugs by autoanalyzer (Beckman Synchron 67; Beckman Instruments).

[8] = system: OVX mice (osteoporosis model); test: Osteoclastic bone resorption (TRAP staining) in OVX mice; format: in vivo, mouse; settings: 10 nmol/kg s.c. daily for 4 weeks, vertebrae, compared with vehicle-treated OVX mice, n = 6
Procedure: as §1, with “At the end of experiments, all mice were sacrificed by exsanguination under chloral hydrate anesthesia and blood were collected for serum calcium, phosphorus and ALP analyses, bones and kidneys were then removed for the analyses described below.” left out
as §2

[9] = system: OVX mice (osteoporosis model); test: Bone volume of vertebrae in OVX mice (radiography, micro-CT, histology); format: in vivo, mouse; settings: 10 nmol/kg s.c. daily for 4 weeks
Procedure: as §1
Thoracic vertebrae were removed and dissected free of soft tissue. […]
Thoracic vertebrae were fixed overnight in 70% ethanol and analyzed by micro-CT with a SkyScan 1072 scanner and associated analysis software (SkyScan, Antwerp, Belgium) as described. […]
Total collagen was detected in paraffin sections using a modified method of Lopez-De Leon and Rojkind. […]
as §2

[10] = system: renal calcium transporters (calbindin-D28K, calbindin-D9K, NCX1, TRPV5); test: Western blot of renal calcium transporters in OVX mice; format: in vivo, mouse; settings: 10 nmol/kg s.c. daily for 4 weeks, relative to vehicle-treated sham-operated mice, n = 6
Procedure: as §1, with “At the end of experiments, all mice were sacrificed by exsanguination under chloral hydrate anesthesia and blood were collected for serum calcium, phosphorus and ALP analyses, bones and kidneys were then removed for the analyses described below.” left out
Purified hPTHrP1-34 and 1-84 and proteins extracted from kidney were quantitated by a kit (Bio-Rad, Mississauga, Ontario, Canada). […] Bands were visualized using ECL chemiluminescence (Amersham) and quantitated by Scion Image Beta 4.02 (Scion Corporation, NIH).

[11] = compared to vehicle-treated sham-operated mice
[12] = vertebrae, micro-CT and histology, compared to vehicle-treated OVX mice (hPTHrP1-84 also to hPTHrP1-34-treated), n = 6

| Substance | placental calcium transfer [1] | circulating t1/2 ([2]; ELISA, read from the figure (Fig. 6e), approximate) | time at which plasma PTHrP levels declined to baseline levels ([2]; ELISA, sampling 15 and 30 min, 1, 2, 4, 6 h, n = 6) | plasma PTHrP levels at 15 min after the administration ([2]; single injection, PTHrP(1-34) EIA kit (ELISA), mean ± SEM, n = 6) | ratios of RANKL/OPG mRNA levels ([3]; among vehicle-treated, hPTHrP1-34-treated and hPTHrP 1-84-treated OVX mice) | osteoblastic gene expression levels of Cbfa1, ALP [3, 11] | ratios of RANKL/OPG mRNA levels [3, 11] | colony formation and osteogenic cell differentiation and mineralization [4] | ALP positive area [5] | MAR (mineral apposition rate) [5] | osteoblast number [5] | osteoid volume [5] | gene expression levels of Cbfa-1, ALP, type I collagen (Col I) and osteocalcin (OCN) [6] | Serum mineral ion and ALP levels [7] | TRAP positive osteoclast number [8] | TRAP positive osteoclast surface [8] | radiolucency in vertebrae ([9]; radiography, compared to vehicle-treated sham-operated mice) | cortical thickness [9, 12] | trabecular bone volume [9, 12] | protein levels of calbindin-D28K, calbindin-D9K, NCX1 and TRPV5 in the kidney [10] |
| --- | --- | --- | --- | --- | --- | --- | --- | --- | --- | --- | --- | --- | --- | --- | --- | --- | --- | --- | --- | --- |
| synthetic PTHrP1-34: synthetic PTHrP1-34 of the literature study on placental calcium transfer (ref 18) | no such effect | – | – | – | – | – | – | – | – | – | – | – | – | – | – | – | – | – | – | – |
| hPTHrP1-34: recombinant human parathyroid hormone related protein 1-34, expressed as GST fusion in E. coli BL21 and cleaved by thrombin | – | approximately 45 mins | 2 h | 9 ± 0.7 pM | no significant differences | slightly up-regulated | increased significantly | significant increase | increased | decreased | increased | not altered significantly | upregulated significantly | no significant differences | did not further increase | did not further increase | increased | not altered significantly | not altered significantly | down-regulated |
